# From patent US11384115B2, “Nuclear sulfated oxysterol, potent regulator of lipid homeostasis, for therapy of hypercholesterolemia, hypertriglycerides, fatty liver diseases, and atherosclerosis” (Virginia Commonwealth University, priority 2004, dated 2022)
# Where two headings read alike, the source gives them in different places.
# Assays:
# [1] = Liver triglycerides (Sudan IV staining) in mice on normal or high cholesterol diet; assay type: in vivo; conditions: normal or high cholesterol diet for 8 days
# Description: To test the effect of diet on cholesterol levels, mice were provided with either a normal or high cholesterol diet for 8 days, and treated with the nuclear oxysterol as described above.
# PPARγ = assay: PPRE promoter reporter gene-luciferase assay in H441 cells; assay type: cell-based, human
# Method: (§1) H441 cells were seeded in 96-well plates. When cell density reached 90-95%, the cells were transfected with an expression plasmid as indicated using a lipid-based FuGENE HD transfection reagent according to the manufacture (Roche, Indianapolis, Ind.). A synthetic renilla luciferase reporter, phrG-TK (Promega, Wisconsin, Wis.), was used as a luciferase internal standard. For PPRE reporter gene assay, 50 ng of pGL3-PPRE-acyl-CoA oxidase luciferase reporter, 50 ng of expression plasmid pCMX-PPARγ, and 50 ng of phrG-TK vector (internal standard) were cotransfected as per the manufacture's instruction. […] Luciferase activities were determined using the Dual-Glo Luciferase Assay System according to the manufacturer's protocol (Promega, Wisconsin, Wis.). The amount of luciferase activity was measured using a TopCount NXT Microplate Scintillation and Luminescence Counter (Packard, Meriden, Conn.) and normalized to the amount of phG-TK luciferase activity. Transfections were carried out in triplicate for each sample, and each experiment was repeated three times.
# HMG CoA reductase = assay: Western blot of HMG CoA reductase protein in HepG2 cells; assay type: cell-based, human
# Method: FIGS. 15A-15D. 25HC3S regulates HMGR mRNA Expression. Real time RT-PCR analysis of HMG CoA R reductase expression in HepG2 cells (FIGS. 15A and 15B). Western blot analysis of protein levels of HMG CoA reductase (FIG. 15C). Total RNAs were purified using SV Total RNA Isolation Kit (Promega) from the cells treated with 25HC3S at concentrations as indicated (FIG. 15A) and incubation at 12 μM of 25HC3S for the different times (effect on HMG CoA mRNA) (FIG. 15B). Two μg of total RNA was used for cDNA preparation (RT) and performed as manufacture recommended (Invitrogen), and 10 ng of cDNA was used for real time PCR. The expression levels were normalized to GAPDH. The bands of HMG CoA reductase (HMGR) were quantitated by laser density scanning. Each value represents mean of three experiments±standard derivation.
# Microsomal proteins (80 μg) were separated on a 7.5% SDS-polyacrylamide denaturing gel according to the method of Laemmli (14). Following SDS-PAGE (Hoefer Vertical Slab Gel Unit; Heofer, San Francisco, Calif.), proteins were electrophoretically transferred overnight (4° C.) to Immobilon-P membranes using a Hoefer Trans Blot Electrophoretic Transfer cell. The membranes were then blocked for 90 minutes (25° C.) in blocking buffer (PBS, pH 7.4, 0.1% Tween, 5% non-fat dry milk). […] Protein bands were detected using the Amersham ECL plus Kit.
# [2] = Water solubility (statement); assay type: physicochemical
# NFκB = NFκB dependent reporter gene-Luc assay in H441 cells, TNFα-induced; assay type: cell-based, human
# Method: A, THP-1 macrophages were treated with 25HC3S or 25HC for 24 hrs followed by addition or no addition of TNFα for another 3 hrs. The nuclear NFκB levels were analyzed by Western blot. The data represent one typical result out of three experiments. […] The reporter gene expression was induced by incubating with 10 ng/ml of TNFα for 3 hrs. The left figure represents cells transfected with pNFκB dependent reporter gene-Luc plasmid alone; the right figure, represents cells co-transfected with PPARγ expression plasmid.
# as §1
smiles,measurement,setting,value
"C[C@H](CCCC(C)(C)O)[C@H]1CC[C@H]2[C@@H]3CC=C4C[C@@H](OS(=O)(=O)O)CC[C@]4(C)[C@H]3CC[C@]12C [25HC3S, 5-cholesten-3β, 25-diol 3-sulphate]",triglyceride levels in liver tissues,[1],significantly decreased
same,PPARγ reporter gene activities in the presence of the antagonist T0070907,"PPARγ; H441, ACOX-PPRE reporter and PPARγ co-overexpression, 1 μM T0070907",failed
same,PPRE activity relative to rosiglitazone,PPARγ; at 25 μM,reached to a similar levels as that induced by the PPARγ agonist rosiglitazone
same,decrease of HMG CoA reductase protein level,HMG CoA reductase,50%
same,water solubility,[2],water soluble
same,water solubility,[2]; listed as 25-hydroxycholesterol 3-sulfate,water-soluble
same,TNFα induction of NFκB dependent reporter gene expression,"NFκB; H441, absence of PPARγ expression plasmid",failed to suppress
same,reduction of TNFα induction of NFκB dependent reporter gene expression,NFκB; H441 co-transfected with PPARγ expression plasmid,50%
same,suppression of NFκB reporter induction in the presence of PPARγ antagonist,"NFκB; H441 co-transfected with PPARγ, T0070907",the suppression was blunted
